Reference: US8530235B2, “Medium that supports culture of an oocyte and modulation of granulosa cell apoptosis” (Adelaide Research & Innovation Pty Ltd., priority 2005, dated 2013)

How the values were obtained:
[1] = test system: activin receptor-like kinases (ALKs) 4, 5 and 7; details: competitive ATP binding site kinase inhibitor; without effecting ALKs 1, 2, 3 or 6 or other cellular kinases; cited from earlier work
cumulus-oocyte complexes = experiment: Study IV: oocyte developmental competence after IVM, IVF and embryo culture; format: cell-based, Bovine
Protocol: Unless otherwise specified, all chemicals and reagents were purchased from Sigma (St Louis, Mo.). Bovine ovaries were collected from local abattoirs and transported to the laboratory in warm saline (30-35° C.). COCs were aspirated from antral follicles (3 to 5 mm diameter) using an 18-gauge needle and a 10-ml syringe containing ˜2 ml aspiration medium (Hepes-buffered. Tissue Cultured Medium-199; TCM-199. ICN Biochemicals, Irvine, Calif., USA) supplemented with 50 μg/ml kanamycin, 0.5 mM sodium pyruvate, 50 μg/ml heparin and 4 mg/ml fatty acid-free bovine serum albumin (FAF-BSA; ICPbio Ltd, Aukland, NZ). Intact COCs with compact cumulus vestments>˜5 cell layers and evenly pigmented cytoplasm were selected under a dissecting microscope and washed twice in Hepes-buffered TCM-199 and once in Hepes-buffered TCM-199 supplemented with 10% fetal calf serim (FCS) (Invitrogen, Carlsbad, Calif.). The basic medium for oocyte maturation was Bovine VitroMat (Cook Australia, Eight Mile Plains, Qld, Australia), a medium based on the ionic composition of bovine follicular fluid. […] Complexes were cultured in pre-equilibrated 300 ? l drops overlaid with mineral oil and incubated at 39° C. with 5% CO2 in humidified air for 24 hour. […]
Recombinant mouse GDF9 and recombinant ovine BMP15 were produced and partially purified in-house as previously described using transfected 293 human embryonic kidney cell lines (293H) originally donated by O. Ritvos (University of Helsinki). Control conditioned medium (hereafter designated ‘293H’) was produced from untransfected 293H cells and subjected to the same chromatography procedures as GDF9 and BMP15 conditioned media.
Consequently, SB-431542 potently antagonizes the ALK 4/5 ligands; TGF-β1, the activins and GDF9, without affecting BMP signalling (Inman et al., 2002; Gilchrist et al., 2006). […] Follistatin-288 was generously donated by S. Shimasaki (University of California San Diego, USA) and we have previously shown that this binding protein antagonizes the bioactivities of native OSFs and recombinant BMP15 in CCs.
In vitro production of embryos was undertaken using defined, serum-free media (Bovine Vitro series of media, Cook Australia). Frozen semen from a single bull of proven fertility was used in all experiments. Briefly, thawed semen was layered over a discontinuous (45%: 90%) Percoll gradient (Amersham Bioscience) and centrifuged (RT) for 20-25 mins at 700 g. The supernatant was removed and the sperm pellet was washed with 500 μl Bovine VitroWash (Cook Australia) and centrifuged for a further 5 minutes at 200 g. Spermatozoa were resuspended with IVF medium (Bovine VitroFert, Cook Australia), then added to the fertilization media drops (Bovine VitroFert, supplemented with 0.01 mM heparin, 0.2 mM penicillamine and 0.1 mM hypotaurine) at a final concentration of 1×106 spermatozoa/ml. COCs were inseminated at a density of 10 μl of IVF medium per COC for 24 h, at 39° C. in 6% CO2 in humidified air.
CCs were removed by gentle pipetting 23-24 h post insemination and five presumptive zygotes were transferred into 20 μl drops of pre-equilibrated Cook Bovine VitroCleave medium (Cook Australia) and cultured under mineral oil at 38.5° C. in 7% O2, 6% CO2, balance N2, for five days (day 1 to day 5).
On Day 5, embryos were transferred in groups of 5-6 to 20 μl drops of pre-equilibrated Bovine VitroBlast (Cook Australia) at 38.5° C. overlaid with mineral oil and cultured to Day 8. Embryos were assessed for quality at Day 8 according to the definitions presented in the Manual of the International Embryo Transfer Society (Stringfellow, 1998) and were performed independently and blinded by an experienced bovine embryologist.
Cell counts were performed using a modified version of the technique described by (Fouladi-Nashta et al., 2005). […]

mural granulosa cells = experiment: Mural granulosa cell DNA synthesis, 3H-thymidine incorporation; format: cell-based, marmoset monkey, Callithrix jacchus; details: GC from large antral follicles
Protocol: Mural GC from large antral follicles were cultured for 24h and thymidine incorporation was stimulated with 175 ng/ml GDF9. […] Bars/points represent means+/−SEM from 3 replicate experiments expressed as a fold change relative to control.
Follicles were manually excised and separated into 3 size classes: periantral (PA; 0.42-0.66 mm), small antral (SA; 0.66-1.5 mm) and large antral (LA; >1.5 mm). GCs from each follicle size were collected and pooled, then washed twice in bicarbonate-buffered tissue culture medium-199 (B-TCM) supplemented with 0.3 mg/ml of polyvinyl alcohol (PVA, Sigma). Depending on the individual experiments, mural GCs (1×10^5 cells/ml), hormones, inhibitors and media were added to wells of 96-well plates (Falcon) to give a final volume of 125 μl. Within each experiment, all treatments were carried out in at least duplicate wells and each experiment was replicated on at least 3 occasions. Cells were cultured in an atmosphere of 37° C., 96% humidity in 5% CO2 in air for 18 hours, followed by a further 6 hour pulse of 15.4 kBq tritiated thymidine (3H-thymidine, ICN) under the same conditions.
Seven adult female marmosets were primed with […] for 6 days, whole ovaries were removed on day 7, follicles manually excised, and GC were then collected from 3 size classes: periantral (PA; 0.42-0.66 mm), small antral (SA; 0.66-1.5 mm) and large antral (LA; >1.5 mm). Four different approaches were utilized to examine GDF9 function in GC. […] To examine the GDF9 signalling pathway, cultured GC from LA follicles were transfected with either a CAGA-luciferase or BRE-luciferase reporter construct and treated with various TGF-β superfamily growth factors or co-cultured with mouse oocytes. In order to determine the effects of GDF9 on marmoset GC proliferation, we employed a GC bioassay whereby after 24 h ^3H-thymidine incorporation is assessed as an indicator of DNA synthesis and cellular proliferation. […] In another experiment, GC were treated with an increasing dose of SB431542, an activin-like kinase (ALK) 4/5/7 inhibitor, in the presence of GDF9+/−IGF1.

## NC(=O)c1ccc(-c2nc(-c3ccc4c(c3)OCO4)c(-c3ccccn3)[nH]2)cc1 [SB-431542, reference compound]
[1]
  kinase selectivity: specifically antagonizing the activities of activin receptor-like kinases (ALKs) 4, 5 and 7
cumulus-oocyte complexes; 4 μM SB-431542 or 10 μg/ml follistatin-288, compared to untreated COCs
  blastocyst development of control COCs treated with antagonist: significantly (P<0.05) decreased
cumulus-oocyte complexes; Experiments 3 & 4, 4 μM SB-431542, 175 ng/ml GDF9, 10% v/v BMP15, 10% v/v 293H
  effect on cleavage rate: no influence
cumulus-oocyte complexes; SB-431542 against GDF9, follistatin against BMP15
  increase of blastocyst yields by GDF9 or BMP15 on addition of the respective antagonist: ablated
Mural granulosa cells; 175 ng/ml GDF9, 24 h
  DNA synthesis stimulated by GDF9 in the presence of inhibitor: dose-dependently inhibited
Mural granulosa cells; 1 μM
  stimulatory effects of GDF9 on DNA synthesis at 1 μM inhibitor: completely eliminate
